From patent US4897391A, “Tricyclic anti-allergy, antiinflammatory and anti-hyperproliferative compounds” (Schering Corporation, priority 1988, dated 1990)

Tests used:
[1] = test system: Peptidoleukotriene Release in Guinea Pig Lung; experiment: Peptidoleukotriene Release Inhibition in Lung Assay; assay type: cell-based; conditions: Cavia porcellus; final concentration of 50 μm (so in the source); ovalbumin challenge, sensitized guinea pig lung
Excerpt: The anti-allergy method of this invention is identified by tests that measure inhibition of leukotriene release in sensitized guinea pigs by compounds of the invention. This procedure is as follows.
First, kill sensitized guinea pigs by a blow to the head, remove the lungs and clean them of visible connective tissue, trachea and large blood vessels. Slice the lungs from individual animals into fragments approximately 1 mm in thickness using a McIlwain tissue chopper and wash them with oxygenated Tyrode's buffer. Transfer weighed aliquots (approximately 400 mg wet weight) of lung into vials containing 2 ml of fresh Tyrode's solution (containing 10 mM cysteine) and incubate in the presence or absence of test compound for 12 minutes at 37° C., challenge the tissues with 20 μg ovalbumin/ml (final concentration) and incubate for 15 minutes. To measure leukotriene release, extract an aliquot of supernatant fluid with 4 volumes of 100% ethanol. After removal of the precipitated protein, dry the clear fluid under a stream of N2 gas. Measure the leukotriene content by a radioimmunoassay using [^3 H]LTC4 (leukotriene C4) and antiserum obtained from New England Nuclear. […] Calculate percent inhibition of leukotriene release by comparing for each lung the release in the presence of the test compound to that in the absence of test compound.

[2] = target: T1, 5-lipoxygenase (Mus musculus, UniProt P48999); experiment: 5-Lipoxygenase Assay (MC-9 mast cells, 5-HETE and LTC4 production); assay type: cell-based, murine; conditions: MC9, 50 μM dose; MC-9 cells; read-out: % Inhibition 5-HETE
T1 construct: Preincubate MC-9 cells (0.39 ml at 7.5×10^6 cells/ml) without or with test compound; endogenous in cells; host or cells: MC-9 murine mast cell clone (interleukin-3-dependent)
T1 sequence (P48999 1-674): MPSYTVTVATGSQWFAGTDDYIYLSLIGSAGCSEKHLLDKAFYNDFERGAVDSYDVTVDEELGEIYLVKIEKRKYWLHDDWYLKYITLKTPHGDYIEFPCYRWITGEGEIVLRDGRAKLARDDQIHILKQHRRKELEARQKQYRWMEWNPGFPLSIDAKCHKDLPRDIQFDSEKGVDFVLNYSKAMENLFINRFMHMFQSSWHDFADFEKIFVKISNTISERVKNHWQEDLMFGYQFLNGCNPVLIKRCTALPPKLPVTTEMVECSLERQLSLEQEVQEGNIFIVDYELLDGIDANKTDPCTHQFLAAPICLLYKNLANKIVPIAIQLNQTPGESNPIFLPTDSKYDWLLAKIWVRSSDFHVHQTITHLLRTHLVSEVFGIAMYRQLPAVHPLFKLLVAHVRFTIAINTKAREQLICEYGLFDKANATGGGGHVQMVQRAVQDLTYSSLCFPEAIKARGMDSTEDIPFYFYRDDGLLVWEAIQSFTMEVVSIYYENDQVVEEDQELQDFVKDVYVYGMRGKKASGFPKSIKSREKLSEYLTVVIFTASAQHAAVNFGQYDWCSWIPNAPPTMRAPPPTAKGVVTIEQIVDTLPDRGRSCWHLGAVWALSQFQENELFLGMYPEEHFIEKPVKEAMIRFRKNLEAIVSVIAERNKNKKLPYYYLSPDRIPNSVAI
Method: Preincubate MC-9 cells (0.39 ml at 7.5×10^6 cells/ml) without or with test compound dissolved in dimethylsulfoxide (DMSO) vehicle (to a final volume 1 μl) for 4 minutes then incubate for 5 minutes with [^14 C]arachidonic acid (Amersham, 59 Ci/mole) at a 9 μM final concentration, and A23187 (Calbiochem) at a 1 μM final concentration in 10 μl of water:ethanol (9:1). Stop the reaction by addition of methanol (0.4 ml), and remove cellular debris by centrifugation. Run aliquots (250 μl) of the incubations on a Waters two-pump HPLC system fitted with a Waters radial compression column (C18, 10 micron, 8×100 mm, micro-Bondapak) and C18 "Guard Pak". Initially elute the column at 3 ml/min with water:methanol:acetic acid (67:33:0.08) containing 1 mM EDTA adjusted to pH 6.0 with ammonium hydroxide (Pump A). At 4 minutes, establish a linear gradient to reach 100% methanol (Pump B) at 9 minutes. Between 13 and 14 minutes, exchange for the initial eluting solvent and by 19 minutes the column will be reequilibrated for the next sample. Analyze the effluent by a continuous flow radioactivity monitor (model ROMONA-D) interfaced with a Hewlett Packard Lab Automation System for quantitation of radioactive products. […] Doses in table 2 are 50 μM unless otherwise noted.

[3] = test system: Reversed Passive Arthus Reaction (paw swelling); experiment: Reversed Passive Arthus Reaction (RPAR) Assay; assay type: in vivo, Male Lewis inbred albino rats; conditions: 50 mg/kg p.o.; rat
Excerpt: Male Lewis inbred albino rats weighing 180-220 grams obtained from Charles River Breeding Laboratories are used in these experiments. House the rats 3 animals/cage and allow food and water ad libitum. Number the animals 1 to 3 in each cage and color mark them for identification purposes.
Prepare all reagents and drugs just prior to the study. Without shaking, solubilize crystallized and lyophilized bovine serum albumin (BSA), obtained from Sigma Chemical Company, in cold sterile pyrogen-free saline (10 mg/ml PFS). Suspend lyophilized anti-bovine serum albumin (IgG Fraction), obtained from Cappel Laboratories, in sterile distilled water and dilute with cold pyrogen-free saline (PFS) just prior to use. The final concentration of anti-bovine serum albumin will be 0.5 mg/ml of PFS. Both BSA and anti-BSA solutions should be iced during use. Suspend or solubilize drugs in an aqueous solution of methyl cellulose (MC) with a homogenizer just prior to administration.
Dose groups of animals (6/group) with drug in methyl cellulose (MC) by gastric lavage one hour prior to sensitization with BSA. Give controls MC alone and include drug-standard in each assay for verification purposes. Prepare drugs so as to provide a dose for a 200 gram animal which is equivalent to the mg/kg dose for the experiment. Thus each rat receives an oral dose in a volume of approximately 2.0 ml. […]

inhibition at 50 µM [2]: 8%
Compound: COc1cc(OC)c2c(C)c3n(c(=O)c2c1)CCCC3 [Compound E, 8,10-bis(methoxy)-1,2,3,4-tetrahydro-11-methyl-6H-benzo[b]quinolizin-6-one]
inhibition at 50 µM [1]: 33% | inhibition of paw swelling [3]: 59%
